Patent publication US20140178305A1, “IDENTIFICATION AND USE OF ANXIOLYTIC COMPOUNDS” (CALIFORNIA INSTITUTE OF TECHNOLOGY, priority 2012, published 2014)

Legend:
Format in all cases: in vivo, mouse
[1] = tested on: MRGPRB4+ neurons (hM3DREADD); assay: Conditioned place preference (CPP) assay, biased design, pharmacogenetic activation with CNO
Method: (§1) For behavioral experiments, juvenile (1-month-old) mice neonatally injected with Cre-dependent AAV8 viruses expressing hM3DREADD were subjected to a conditioned place preference assay (CPP13) using a biased design, by an investigator blind to genotype. All mice were tested for their initial chamber preference before conditioning, as depicted in FIG. 4C, lower panel).
(§2) The conditioned place preference (CPP) protocol was based on previous studies. For testing a positive valence effect of activation of MrgprB4^+ neurons, a biased compartment assignment procedure in which activation of the neurons is tested for its ability was used to increase the time spent in the initially non-preferred chamber. The CPP apparatus consisted of a rectangular chamber divided into three compartments (300×150×150 mm per compartment), connected via an opening (50×50 mm) in each delimiting wall. The two side (test) compartments were designed to have different visual and tactile cues, by having distinct walls (horizontal or vertical alternating white and black stripes) and distinct floors (different shapes of floor grids with big or small square holes). In addition a 1-inch-diameter polyvinylchloride (PVC) pipe coupler (two schedule 40 wall thickness), either threaded or smooth, was placed in the centre of each side compartment to enrich for tactile cues. The centre compartment was a neutral plastic enclosure (see FIG. 4B). This design was chosen so as to promote a compartment preference assignment for each mouse. A video tracking system (Noldus Ethovision) recorded all animal movements.
(§3) Because our hypothesis is based on the social reward mediated by social contact in juvenile mice, the mice used were approximately 1-month old. After weaning the mice were maintained in social groups and left undisturbed until the start of the CPP assay. The paradigm was completed in 6 days. On the day before pre-testing the mice were socially isolated in their home cage. On day 1 of the procedure each mouse was placed in the central compartment and allowed to explore the entire apparatus freely for 30 min (pre-test). After the pre-test the initial preference of each mouse for a given side compartment was recorded. […] Conditioning was initiated on day 2 and encompassed four sessions performed on four consecutive days. In the first conditioning session mice were injected i.p. with CNO (5 mg kg) (or saline of an equivalent volume for some control mice) and placed for 1 h (based on the observation that CNO effects peak between 45 and 50 min after administration) in the initially non-preferred (I.N.P.) compartment. On day 3, during the second conditioning session, all mice were injected with saline and confined for 1 hr in the opposite (that is, initially preferred, I.P.) compartment. (The second conditioning session was performed the following day as CNO effects last for 9 hrs.) On day 4 and day 5 the first and second conditioning sessions were repeated, respectively. The time between the i.p. injections of CNO or saline and the placement of the mice in the compartment was between 5-10 min, which is compatible with the time that is needed for CNO to start having an effect. On day 6, the mice were tested for their side compartment preference by placing them in the centre compartment and allowing them to explore the entire apparatus freely for 30 min (post test). All sessions were conducted blind to the genotype/injected virus of each mouse. For the conditioned place aversion (CPA assay) the mice remained group-housed until the day before the pre-test. After the pre-test, on the first day of the conditioning session the mice were injected with saline and confined in the I.N.P. compartment. On the second day of conditioning the mice were injected with CNO (except for the saline control mice) and placed in the I.P. compartment. On the third and fourth day of conditioning the first and second sessions of conditioning were repeated, respectively. […]

[2] = tested on: MRGPRD+ neurons (hM3DREADD); assay: as above; details: MrgprD-Cre/hM3DREADD mice conditioned with CNO, n=8
Method: as §1, §2, §3

[3] = tested on: MRGPRD+ neurons (hM3DREADD); assay: Conditioned place aversion (CPA) assay with CNO; details: CNO and DREADD, separate experiments, data not shown
Excerpt: Because our hypothesis is based on the social reward mediated by social contact in juvenile mice, the mice used were approximately 1-month old. After weaning the mice were maintained in social groups and left undisturbed until the start of the CPP assay. The paradigm was completed in 6 days. On the day before pre-testing the mice were socially isolated in their home cage. On day 1 of the procedure each mouse was placed in the central compartment and allowed to explore the entire apparatus freely for 30 min (pre-test). After the pre-test the initial preference of each mouse for a given side compartment was recorded. […] Conditioning was initiated on day 2 and encompassed four sessions performed on four consecutive days. In the first conditioning session mice were injected i.p. with CNO (5 mg kg) (or saline of an equivalent volume for some control mice) and placed for 1 h (based on the observation that CNO effects peak between 45 and 50 min after administration) in the initially non-preferred (I.N.P.) compartment. On day 3, during the second conditioning session, all mice were injected with saline and confined for 1 hr in the opposite (that is, initially preferred, I.P.) compartment. (The second conditioning session was performed the following day as CNO effects last for 9 hrs.) On day 4 and day 5 the first and second conditioning sessions were repeated, respectively. […]

Structure (SMILES): C[N+]1([O-])CCN(C2=Nc3cc(Cl)ccc3Nc3ccccc32)CC1 [CNO, Clozapine-N-oxide]
- difference of means of difference scores, experimental versus pooled controls ([1]; 95% confidence interval 62.9-339.3, Cohen's d=0.872): 201±70
- difference score (time after conditioning minus before conditioning), saline-paired chamber ([1]; MrgprB4::hM3DREADD mice, n=15): -340 ± 74 s
- difference score (time after conditioning minus before conditioning), CNO-paired (I.N.P.) chamber ([1]; MrgprB4::hM3DREADD mice, n=15, p<0.01): 253 ± 66 s
- increase in the time spent in the I.N.P. chamber paired with CNO exposure ([1]; Mrgprb4-hM3DREADD mice, CNO 5 mg/kg i.p., pre- versus post-training, n=15, P<0.01): 190±95%
- change in the difference score for the I.N.P. chamber ([1]; control mice expressing hrGFP in MrgprB4+ (n=9) or MrgprD+ (n=10) neurons, conditioned with CNO): No significant change
- mean difference score of the experimental animals in the I.N.P. chamber ([1]; experimental group (FIG. 4e, j)): 253±65.8
- increase in preference score for the I.N.P. chamber (time in CNO/I.N.P. chamber divided by total time in the two test chambers) ([1]; experimental group, pre vs. post, p<0.001): 195±86%
- conditioned place preference (CPP) [2]: neither CPP
- conditioned place aversion (CPA) [3]: nor (in separate experiments) conditioned place aversion
